Laboratory results published in the METLIN SMRT retention time set (Domingo-Almenara et al. 2019).

Experiment: gradient 5% acetonitrile 3 min, to 50% in 2 min, to 85% in 15 min, held 3 min, 100 µL/min
Details: column: Zorbax Extend-C18 2.1 x 50 mm; eluents: water / acetonitrile, 0.1% formic acid
Summary of the method: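 The mobile phases were water and acetonitrile, each with 0.1% formic acid, pumped at 100 μL/min through a Zorbax Extend-C18 column (2.1 × 50 mm, 1.8 μm). Pure standards were injected as mixtures of ~100 molecules and detected by a quadrupole time-of-flight mass spectrometer in positive and negative ionization mode. Retention time came from computationally picked adduct peaks, each inspected by hand.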

Structure (SMILES)	RP-LC retention time [s]
CCc1nc(-c2csc(S(=O)(=O)N3CCCC(C(=O)Nc4ccc(F)c(Cl)c4)C3)c2)no1 (configuration not stated)	1130
CCOC(=O)c1sc(NC(=O)Cn2c(=O)oc3ccccc32)nc1C	778
O=C(Nc1ccccc1NC(=O)C1CC(=O)N(c2ccc(F)cc2)C1)c1ccsc1 (configuration not stated)	739
CCc1ccc(-c2noc(Cn3c(=O)n(-c4ccc(OC)cc4)c(=O)c4sccc43)n2)cc1	1150
O=C(CCC1CCCN(c2cc(NC3CC3)ncn2)C1)NCc1ccc(F)cc1 (configuration not stated)	676
COc1ccc(-c2nnc(N3CCC(C(=O)NC(C)c4ccccn4)CC3)o2)cc1 (configuration not stated)	621
CCOC(=O)C(Cc1c[nH]c2ccccc12)NC(=O)COc1ccc(Cl)cc1 (configuration not stated)	1010
Cc1ccccc1Cn1nc2c(S(=O)(=O)N3CCOCC3)cccn2c1=O	794
CCOc1ccc(-c2noc(Cn3nc(-c4ccc5c(c4)OCO5)ccc3=O)n2)cc1	1130
O=C(Cn1cccc(-c2nc(-c3ccc(F)cc3)no2)c1=O)Nc1ccc2c(c1)OCCO2	832
Cc1ccc(-n2c(N3CCCC(C(=O)NCCc4cccs4)C3)nc3ccsc3c2=O)cc1 (configuration not stated)	913
CCN(CCNC(=O)C1CCc2nc(N3CCOCC3)ncc2C1)c1ccccc1 (configuration not stated)	591
Cc1ccc(CN2CCc3nc(N4CCN(c5ccccc5F)CC4)ncc3C2)s1	799
CCOC(=O)c1cccc(NC(=O)Cn2c(=O)c(CCC(=O)NC3CCCC3)nc3ccccc32)c1	876
COCCn1ncc(N2CCC(C(=O)Nc3cc(OC)cc(OC)c3)C2)cc1=O (configuration not stated)	684
COc1ccccc1NC(=O)N1CCC(CNS(=O)(=O)Cc2cccc(F)c2)CC1	787
CCOC(=O)C1CCCN(C(=O)c2cccc3c2SCCC3=O)C1 (configuration not stated)	780
Cc1csc(-c2cc(S(=O)(=O)Nc3cccc(Cl)c3)c(C)s2)n1	1060
Cc1cnn(Cc2nc(-c3ccc(NC(=O)COc4ccccc4)cc3)oc2C)c1	869
O=C(CN1CCN(Cc2ccccc2)CC1)Nc1nc(-c2ccccc2)cs1	700

Structure (SMILES)	RP-LC retention time [s]
Cc1ccc(C(=O)NCCc2cn3ccsc3n2)cc1[N+](=O)[O-]	559
Cc1cc(C)n(-c2nc(C)c(C(=O)Nc3ccccc3F)s2)n1	1120
Cn1c(=O)c(-c2noc(C(=O)N3CCN(c4ccccn4)CC3)n2)nn(-c2ccc(F)cc2)c1=O	666
CCN(C(=O)Cc1c(C(=O)O)c(C)cn1CC)c1cccc(Cl)c1	839
CN(C)C(CNC(=O)c1cc(-c2ccccc2)on1)c1cccs1 (configuration not stated)	663
CCCCNC(=O)C1c2ccccc2C(=O)N(C)C1c1cccs1 (configuration not stated)	775
CC(C)C(NC(=O)c1ccco1)C(=O)N1CCC(c2noc(-c3ccccc3)n2)CC1 (configuration not stated)	920
COc1ccccc1NC(=O)CSCC(=O)N1CCC(C(N)=O)CC1	619
COC(=O)c1c(C)c(C(=O)C(C)N(CC(C)C)C(=O)c2ccc(Cl)cc2)c(C)n1C (configuration not stated)	1080
COc1ccc(C(=O)N2C[C@@H]3C[C@H]2C[C@@H]3NC(=O)c2cccnc2)cc1F	618
CCc1c(C(=O)NNC(=O)[C@@H](O)c2cc(F)cc(F)c2)ccc(O)c1C	807
Cc1cc(C(=O)N2C[C@@H](F)C[C@H]2C(=O)N2CCc3ccccc3C2)n(C)n1	683
Cc1nc(SCC(=O)Nc2ccc(Cl)cc2C(F)(F)F)cc(-c2ccccn2)n1	1080
CN(C)c1ccc(CNC(=O)[C@@]23CCCC[C@H]2N(CCc2ccccc2)C(=O)CC3)cc1	634
Cn1c([N+](=O)[O-])cnc1N1CCN(c2nncs2)C1=O	689
CCCNC(=O)C1CCN(c2ccc(SCC(=O)Nc3cccc(C)c3C)nn2)CC1	642
Cc1ccccc1N1CCN(C(=O)c2cn3c(n2)CCCC3)CC1	668
CCCn1cc(C(=O)NCC(C)C)c(S(=O)(=O)N2CCN(c3ccccc3OCC)CC2)n1	1180
Cc1cc2c(c(=O)n1Cc1ccccc1)C(C(C)C)C(C#N)=C(N)O2 (configuration not stated)	769
COCCN1C(=O)c2ccccc2C(C(=O)NCc2ccc(F)cc2)C12CCCC2 (configuration not stated)	879

Structure (SMILES)	RP-LC retention time [s]
O=C(NC1CC1)C1CCCN(c2nc3ncn(CC(=O)N4CCc5ccccc5C4)c(=O)c3s2)C1 (configuration not stated)	689
CCc1noc2nc(CCC(=O)NCCCN3CCN(C)CC3)nc(N3CCCCC3)c12	599
CCCn1c(C)cnc1C1CN(S(=O)(=O)c2cc(Cl)ccc2Cl)C1	607
O=c1c2c(CO)c(-c3ccccc3)nn2ccn1Cc1ccc(Br)cc1	1010
CCN(CC)C(=O)c1ccc2c(c1)N(CC(=O)NCCOC)C(=O)CO2	624
Cc1nc2cc(N3CC(C(=O)Nc4cccc(Br)c4)CC3=O)ccc2o1 (configuration not stated)	805
CCCOc1ccc(-c2noc(Cc3nc(-c4ccc(OC)c(OC)c4)cs3)n2)cc1	1220
Cc1cc(Cl)ccc1NC(=O)Cn1cccc1-c1nnc(C2CC2)o1	904
COc1ccccc1-c1noc(C2CCCN2C(=O)Nc2ccc(Cl)cc2)n1 (configuration not stated)	920
O=C(c1c(F)cccc1F)N1CCN=C1N1CCN(c2cccc(Cl)c2)CC1	765
COc1ccc(S(=O)(=O)N2C[C@@H]3C[C@H]2C[C@@H]3NC(=O)c2ccccc2)cc1Cl	861
CCOC(=O)c1cc(S(=O)(=O)N2CCCC2C(=O)NCc2ccc(C)o2)cn1C (configuration not stated)	846
CN(CCNC(=O)CN1C(=O)CSc2cccn2-c2ccccc21)C1CCCCC1	670
C[C@H]1CN(C(=O)c2ccc(C#N)cc2)C[C@@H]1c1nc(-c2cccnc2)no1	717
Cc1cccc(OCc2nc(CCN(C)C(=O)NCc3ccco3)no2)c1	844
O=C(c1ccc(OCC2CCCN2C(=O)c2ccccc2)cc1)N1CCCC1 (configuration not stated)	789
Cc1oc(-c2[nH]ncc2C(=O)N2CCOCC2)cc1S(=O)(=O)N1CCN(C)CC1	553
COc1cccc(CNC(=O)c2cn(-c3cc(N4CCOCC4)ncn3)cn2)c1	752
CC(=O)c1cccc(NC(=O)COc2ccc(C(C)(C)C)cc2)c1	1010
Cc1cccc(Sc2nccnc2N2CCC(C(=O)N3CCOCC3)CC2)c1	900

Continued, values first:

RP-LC retention time [s]	Structure (SMILES)
964	CCc1ccccc1N(CC)C(=O)C1CCCN(c2ncnc3c2nc2n3CCCCC2)C1 (configuration not stated)
662	COc1ccc(NC(=O)N2CCCC2c2nncn2C2CCCC2)c(OC)c1 (configuration not stated)
772	COc1cc(CN2CC(Oc3ccc(-c4noc(C5CC5)n4)cc3)C2)cc(OC)c1
1250	C=CCN(CC=C)C(=O)C1CCN(C(=O)c2cccc(F)c2)CC1
1020	O=C(Nc1ccccc1Br)N1CCc2nc(-c3ccc(F)cc3)ncc2C1
774	CC(C)(C)CC(=O)N1CCCC(c2nc(CNC(=O)C3CCC3)cs2)C1 (configuration not stated)
594	Cc1cnc(C2CN(Cc3cccc(OC(F)(F)F)c3)C2)n1CC1CC1
700	COC(=O)c1ccc(NC(=O)Cn2c(=O)c3cc(C)nn3c3ncccc32)cc1
1100	CN(C)c1cccc(-c2nc(-c3cn(-c4ccc(F)cc4)nn3)no2)c1
911	Cc1cc(C(=O)NCCc2ccc(Cl)cc2)n(-c2ccccc2)n1
1420	CCCN(C(=O)Cc1ccc(OC)cc1)c1nc(-c2ccccc2)cs1
1050	Cc1nc(-c2cc(S(=O)(=O)Nc3ccc(F)cc3Cl)c(C)s2)cs1
720	CC1CCN(C(CNC(=O)c2cc(-c3ccc4c(c3)OCCO4)on2)c2ccco2)CC1 (configuration not stated)
838	O=C(Cc1ccc(Cl)cc1)N1C[C@@H]2C[C@H]1C[C@@H]2NS(=O)(=O)c1cccs1
693	O=C(NCCCn1c(-c2ccncc2)nc2cccnc21)Nc1ccc(F)c(Cl)c1
606	Cc1cnc(C(=O)NC2C[C@H]3CC[C@@H](C2)N3C(=O)C2CC2)cn1 (some centres not stated)
607	Cc1ccccc1NC(=O)CN1C(=O)C2CCCCN2c2ccc(S(=O)(=O)N(C)C)cc21 (configuration not stated)
695	C/C=C/c1cc2c(c(=O)o1)C(=O)[C@@H](O)[C@H](C)O2
683	COC(=O)c1cnc(N2CCN(C3CCCCC3)CC2)c2ccccc12
880	CCc1ccc(NC(=O)Nc2cnn(-c3ncc(N4CCCC4)cn3)c2)cc1
788	CC(C)S(=O)(=O)c1cc2c(cc1NC(=O)c1ccc(F)cc1)n(C)c(=O)n2C
726	Cc1nc(C2CC23CCN(S(=O)(=O)c2cccnc2)CC3)no1 (configuration not stated)
802	CCN1c2ccc(F)cc2C(=O)NC12CCN(C(=O)c1ccc(OC)cc1C)CC2
785	Cc1ccsc1C(=O)NCC12CCCC=C1N(C)C(=O)CC2 (configuration not stated)
622	O=C(Nc1ccc(-c2nnc3n2CCCC3)cc1)C1CCC1
853	CCc1ccc(CNC(=O)C2CCN(C(=O)c3ncn4c3COC(c3ccc(C)cc3)C4)CC2)cc1 (configuration not stated)
738	Cc1ccc(-c2nc3nc(C)c(CC(=O)N4CCCC4)c(C)n3n2)cc1
